The record followed here is BindingDB's records for doi:10.1021/jm990397l (University of Groningen, 2000).

The structures appear in SMILES notation.

This assay has as its target 5-HT1D receptor (Bos taurus). Description: Inhibition affinity against 5-HT-1D receptor in bovine caudate nucleus using radio binding assay.

Broadly, the IC50 is the point on the concentration scale where inhibition reaches its midpoint. A high value points to weaker potency. As for `Cc1nc(-c2ccc(-c3ccc(C(=O)Nc4ccc(OS(=O)(=O)C(F)(F)F)c(N5CCN(C)CC5)c4)cc3)c(C)c2)no1` [Trifluoro-methanesulfonic acid 4-{[2'-methyl-4'-(5-methyl-[1,2,4]oxadiazol-3-yl)-biphenyl-4-carbonyl]-amino}-2-(4-methyl-piperazin-1-yl)-phenyl ester], the IC50 was above 1000 nM.
